US20240270762A1, “PENICILLIN-BINDING PROTEIN INHIBITORS” (priority 2021, published 2024)
≈ marks a conversion by molar mass, not a printed value.

What was measured:
[1] = biological target: T1, PBP3 from Pseudomonas aeruginosa (PAO1) (Pseudomonas aeruginosa, UniProt G3XD46); test: Bocillin-FL fluorescence polarization competition binding, P. aeruginosa PBP3; settings: Binding affinity to P. aeruginosa PBP3; fluorescence polarization competition binding assay using Bocillin-FL; read-out: P. aeruginosa PBP3 Potency
T1 construct: made in house
Summary of the method: (§1)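 Purified PBP was preincubated with inhibitor (E. coli PBP3 1.5 μM, 30 min; P. aeruginosa PBP3 0.75 μM, A. baumannii PBP3 0.2 μM and PBP1a 1 μM, 15 min), then Bocillin-FL (0.1 μM; 0.05 μM for PBP1a) added and FP read up to 60 min. EC50 = 50% loss of bound probe.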

[2] = test system: N. gonorrhoeae ATCC 49226; test: Liquid broth MIC in Fastidious broth; settings: Neisseria gonorrhoeae, ATCC49226, read-out: Minimum Inhibitory Concentration (MIC), N. gonorrhoeae ATCC 49226
[3] = biological target: T2, PBP3 from Escherichia coli (K-12) (Escherichia coli, UniProt P0AD68); test: Bocillin-FL fluorescence polarization competition binding, E. coli PBP3
T2 construct: made in house
Summary of the method: as §1

E. coli AG100A = test: Broth microdilution MIC in CAMHB; format: cell-based; settings: Escherichia coli, read-out: MIC E. coli AG100A
[4] = biological target: T3, PBP3 from Acinetobacter baumannii (ATCC 19606) (Acinetobacter baumannii, UniProt A0ABX6CK25); test: Bocillin-FL fluorescence polarization competition binding, A. baumannii PBP3; settings: fluorescence polarization competition binding assay using Bocillin-FL; read-out: A. baumannii PBP3 Potency
T3 sequence (A0ABX6CK25 64-610): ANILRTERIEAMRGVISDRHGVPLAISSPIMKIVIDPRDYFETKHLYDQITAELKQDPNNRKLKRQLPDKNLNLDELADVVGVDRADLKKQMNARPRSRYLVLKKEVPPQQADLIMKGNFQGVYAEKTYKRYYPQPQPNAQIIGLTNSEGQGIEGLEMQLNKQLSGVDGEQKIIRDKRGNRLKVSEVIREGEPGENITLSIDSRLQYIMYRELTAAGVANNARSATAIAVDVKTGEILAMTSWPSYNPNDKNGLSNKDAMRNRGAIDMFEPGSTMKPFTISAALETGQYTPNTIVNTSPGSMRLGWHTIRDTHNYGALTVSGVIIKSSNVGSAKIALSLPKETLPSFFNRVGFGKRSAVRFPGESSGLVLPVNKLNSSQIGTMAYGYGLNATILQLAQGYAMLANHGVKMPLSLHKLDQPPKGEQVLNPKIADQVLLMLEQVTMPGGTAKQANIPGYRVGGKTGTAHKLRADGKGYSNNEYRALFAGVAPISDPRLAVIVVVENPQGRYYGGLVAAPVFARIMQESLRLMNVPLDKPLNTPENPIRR
Summary of the method: as §1

N. gonorrhoeae CDC-0197 = test: Liquid broth MIC in Fastidious broth; settings: Neisseria gonorrhoeae, CDC0197, read-out: Minimum Inhibitory Concentration (MIC), N. gonorrhoeae CDC-0197
A. baumannii ATCC 17978 = test: microbe, parasite or virus in culture; format: cell-based; settings: Acinetobacter baumannii, ATCC17978, read-out: MIC, A. baumannii ATCC 17978
N. gonorrhoeae WHO G = test: Liquid broth MIC in Fastidious broth; settings: Neisseria gonorrhoeae, read-out: Minimum Inhibitory Concentration (MIC), N. gonorrhoeae WHO G
N. gonorrhoeae WHO L = test: Liquid broth MIC in Fastidious broth; settings: Neisseria gonorrhoeae, read-out: Minimum Inhibitory Concentration (MIC), N. gonorrhoeae WHO L
N. gonorrhoeae WHO Q = test: Liquid broth MIC in Fastidious broth; settings: Neisseria gonorrhoeae, read-out: Minimum Inhibitory Concentration (MIC), N. gonorrhoeae WHO Q

T2 sequence (P0AD68 1-577): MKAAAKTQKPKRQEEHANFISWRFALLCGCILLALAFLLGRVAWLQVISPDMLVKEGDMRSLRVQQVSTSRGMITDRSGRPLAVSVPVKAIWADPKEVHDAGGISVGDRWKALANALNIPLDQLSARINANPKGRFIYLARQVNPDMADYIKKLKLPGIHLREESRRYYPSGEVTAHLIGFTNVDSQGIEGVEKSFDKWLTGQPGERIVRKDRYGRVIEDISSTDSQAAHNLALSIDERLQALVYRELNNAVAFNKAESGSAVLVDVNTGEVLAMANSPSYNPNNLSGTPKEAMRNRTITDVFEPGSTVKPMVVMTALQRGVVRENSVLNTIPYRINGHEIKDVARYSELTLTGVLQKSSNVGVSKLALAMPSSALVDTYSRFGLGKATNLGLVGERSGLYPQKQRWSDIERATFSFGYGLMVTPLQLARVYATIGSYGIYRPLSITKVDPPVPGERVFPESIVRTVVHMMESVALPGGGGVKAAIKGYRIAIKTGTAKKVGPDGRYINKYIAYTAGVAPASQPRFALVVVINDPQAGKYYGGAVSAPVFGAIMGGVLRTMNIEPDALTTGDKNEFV
T1 sequence (G3XD46 whole entry): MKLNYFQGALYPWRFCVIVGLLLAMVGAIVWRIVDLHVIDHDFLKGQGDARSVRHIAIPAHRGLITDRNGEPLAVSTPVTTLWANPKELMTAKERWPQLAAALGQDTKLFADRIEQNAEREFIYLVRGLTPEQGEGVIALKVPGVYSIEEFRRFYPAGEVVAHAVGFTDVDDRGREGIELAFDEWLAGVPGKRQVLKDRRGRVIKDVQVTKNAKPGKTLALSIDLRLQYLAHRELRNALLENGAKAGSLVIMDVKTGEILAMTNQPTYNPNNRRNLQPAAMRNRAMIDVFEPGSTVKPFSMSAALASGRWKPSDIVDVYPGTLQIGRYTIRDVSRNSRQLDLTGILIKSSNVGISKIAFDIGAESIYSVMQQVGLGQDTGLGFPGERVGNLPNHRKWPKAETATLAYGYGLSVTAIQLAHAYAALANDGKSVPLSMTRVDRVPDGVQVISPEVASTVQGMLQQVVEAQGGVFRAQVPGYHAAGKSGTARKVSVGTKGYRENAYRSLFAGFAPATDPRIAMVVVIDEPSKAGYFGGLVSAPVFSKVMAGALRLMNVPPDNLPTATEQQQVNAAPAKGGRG

Row | SMILES | IC50 [1] [µM] | MIC [2] [µg/mL] | EC50 [3] [µM] | MIC (E. coli AG100A) [µg/mL] | IC50 [4] [µM] | MIC (N. gonorrhoeae CDC-0197) [µg/mL] | MIC (A. baumannii ATCC 17978) [µg/mL] | MIC (N. gonorrhoeae WHO G) [µg/mL] | MIC (N. gonorrhoeae WHO L) [µg/mL] | MIC (N. gonorrhoeae WHO Q) [µg/mL]
1 | CS(=O)(=O)N1CCN(C(=O)N[C@@H](C(=O)N[C@H]2Cc3ccc(F)c(C(=O)O)c3OB2O)c2ccc(P(=O)(O)O)c(F)c2)C1=O (single isomer, unassigned) [Example 19] | < 10 | < 1 | < 10 | 32 to 64 (≈ 49.5 to 99 µM) | < 10 | < 1 | 8 to 16 (≈ 12.4 to 24.8 µM) | < 1 | < 1 | < 1
2 | O=C(O)c1c(F)ccc2c1OB(O)[C@@H](NC(=O)C(NC(=O)N1CCN(Cc3ccc(O)c(O)c3Cl)C(=O)C1=O)c1ccc(P(=O)(O)O)cc1)C2 (stereo partly drawn) [Example 8, (3R)-3-(2-(4-(2-chloro-3,4-dihydroxybenzyl)-2,3-dioxopiperazine-1-carboxamido)-2-(4-phosphonophenyl)acetamido)-7-fluoro-2-hydroxy-3,4-dihydro-2H-benzo[e][1,2]oxaborinine-8-carboxylic acid] | < 10 | < 1 | < 10 | < 1 | < 10 | 1 to 2 (≈ 1.36 to 2.72 µM) | < 1 | < 1 | 4 to 8 (≈ 5.44 to 10.9 µM) | < 1
3 | CS(=O)(=O)N1CCN(C(=O)NC(C(=O)N[C@H]2Cc3cccc(C(=O)O)c3OB2O)c2ccc(P(=O)(O)O)c(O)c2)C1=O (stereo partly drawn) [Example 17, (3R)-2-hydroxy-3-(2-(3-hydroxy-4-phosphonophenyl)-2-(3-(methylsulfonyl)-2-oxoimidazolidine-1-carboxamido)acetamido)-3,4-dihydro-2H-benzo[e][1,2]oxaborinine-8-carboxylic acid] | < 10 | < 1 | < 10 | 8 to 16 (≈ 12.8 to 25.5 µM) | < 10 | < 1 |  | < 1 | < 1 | < 1
4 | CS(=O)(=O)N1CCN(C(=O)NC(C(=O)N[C@H]2Cc3cccc(C(=O)O)c3OB2O)c2ccc(P(=O)(O)O)c(Cl)c2)C1=O (stereo partly drawn) [Example 11, (3R)-3-(2-(3-chloro-4-phosphonophenyl)-2-(3-(methylsulfonyl)-2-oxoimidazolidine-1-carboxamido)acetamido)-2-hydroxy-3,4-dihydro-2H-benzo[e][1,2]oxaborinine-8-carboxylic acid] | < 10 | < 1 | < 10 | 8 to 16 (≈ 12.4 to 24.8 µM) | < 10 | < 1 |  | < 1 | 1 to 2 (≈ 1.55 to 3.1 µM) | < 1
5 | CCN1CCN(C(=O)NC(C(=O)N[C@H]2Cc3cccc(C(=O)O)c3OB2O)c2ccc(CP(=O)(O)O)cc2)C(=O)C1=O (stereo partly drawn) [Example 20, (3R)-3-(2-(4-ethyl-2,3-dioxopiperazine-1-carboxamido)-2-(4-(phosphonomethyl)phenyl)acetamido)-2-hydroxy-3,4-dihydro-2H-benzo[e][1,2]oxaborinine-8-carboxylic acid] | < 10 | < 1 | < 10 | 8 to 16 (≈ 13.3 to 26.6 µM) | < 10 | < 1 |  | < 1 | 1 to 2 (≈ 1.66 to 3.32 µM) | < 1
6 | CC(=O)NC(C(=O)N[C@H]1Cc2cccc(C(=O)O)c2OB1O)c1ccc(P(=O)(O)O)cc1 (stereo partly drawn) [Example 26, (3R)-3-(2-acetamido-2-(4-phosphonophenyl)acetamido)-2-hydroxy-3,4-dihydro-2H-benzo[e][1,2]oxaborinine-8-carboxylic acid] | 50 to 250 | 16 to 32 (≈ 34.6 to 69.2 µM) | 50 to 250 | 32 to 64 (≈ 69.2 to 138 µM) | < 10 | 16 to 32 (≈ 34.6 to 69.2 µM) |  | 16 to 32 (≈ 34.6 to 69.2 µM) | 16 to 32 (≈ 34.6 to 69.2 µM) | 16 to 32 (≈ 34.6 to 69.2 µM)
7 | CCN1CCN(C(=O)N[C@@H](C(=O)N[C@H]2Cc3ccc(F)c(C(=O)O)c3OB2O)c2ccc(P(=O)(O)O)cc2)C(=O)C1=O (single isomer, unassigned) [Example 10] | < 10 | < 1 | < 10 | 32 to 64 (≈ 52.8 to 106 µM) | < 10 | < 1 |  | < 1 | < 1 | < 1
